What was measured:
Assay in all cases: relative viability (nuclei count vs DMSO), 5 days (fraction); higher = more cells survive
YM155 + Linsitinib = compound: COCC[n+]1c2c(n(Cc3cnccn3)c1C)C(=O)c1ccccc1C2=O [YM155] + C[C@]1(O)C[C@@H](c2nc(-c3ccc4ccc(-c5ccccc5)nc4c3)c3c(N)nccn32)C1 [Linsitinib] (partner 1 µM)
In short: (§1)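 The day after seeding in 1536-well plates, lung cancer cell lines were treated by pin tool with a single drug, or with a fixed anchor-drug dose together with five library-drug doses (not always all listed) in √10 steps. After 5 days, a combined fix-and-stain solution (final 0.05% Triton X-100, 1% formaldehyde, 1 ug/ml Hoechst) was added. Nuclei counted on 4× images gave relative viability as treated counts over vehicle counts, reported as the median of duplicate plates.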

Quizartinib + Alpelisib = compound: CC(C)(C)c1cc(NC(=O)Nc2ccc(-c3cn4c(n3)sc3cc(OCCN5CCOCC5)ccc34)cc2)no1 [Quizartinib] + Cc1nc(NC(=O)N2CCC[C@H]2C(N)=O)sc1-c1ccnc(C(C)(C)C(F)(F)F)c1 [Alpelisib] (partner 2 µM)
In short: as §1

Quizartinib + Olaparib = compound: CC(C)(C)c1cc(NC(=O)Nc2ccc(-c3cn4c(n3)sc3cc(OCCN5CCOCC5)ccc34)cc2)no1 [Quizartinib] + O=C(c1cc(Cc2n[nH]c(=O)c3ccccc23)ccc1F)N1CCN(C(=O)C2CC2)CC1 [Olaparib] (partner 8 µM)
In short: as §1

YM155 + Bortezomib = compound: COCC[n+]1c2c(n(Cc3cnccn3)c1C)C(=O)c1ccccc1C2=O [YM155] + CC(C)C[C@H](NC(=O)[C@H](Cc1ccccc1)NC(=O)c1cnccn1)B(O)O [Bortezomib] (partner 0.002 µM)
In short: as §1

Cell Line | relative viability (YM155 + Linsitinib; first compound 0.002 µM) | relative viability (YM155 + Linsitinib; first compound 0.006325 µM) | relative viability (YM155 + Linsitinib; first compound 0.02 µM) | relative viability (YM155 + Linsitinib; first compound 0.06325 µM) | relative viability (Quizartinib + Alpelisib; first compound 0.001 µM) | relative viability (Quizartinib + Alpelisib; first compound 0.003162 µM) | relative viability (Quizartinib + Alpelisib; first compound 0.01 µM) | relative viability (Quizartinib + Alpelisib; first compound 0.03162 µM) | relative viability (Quizartinib + Alpelisib; first compound 0.1 µM) | relative viability (Quizartinib + Olaparib; first compound 0.001 µM) | relative viability (Quizartinib + Olaparib; first compound 0.003162 µM) | relative viability (Quizartinib + Olaparib; first compound 0.01 µM) | relative viability (Quizartinib + Olaparib; first compound 0.03162 µM) | relative viability (Quizartinib + Olaparib; first compound 0.1 µM) | relative viability (YM155 + Bortezomib; first compound 0.002 µM) | relative viability (YM155 + Bortezomib; first compound 0.006325 µM) | relative viability (YM155 + Bortezomib; first compound 0.02 µM) | relative viability (YM155 + Bortezomib; first compound 0.06325 µM)
HCC-78 | 0.615 | 0.494 | 0.486 | 0.598 | 0.343 | 0.33 | 0.393 | 0.315 | 0.342 | 0.732 | 0.753 | 0.899 | 0.706 | 0.92 | 0.536 | 0.569 | 0.552 | 0.656
HCC-366 | 0.683 | 0.61 | 0.659 | 0.676 | 0.348 | 0.31 | 0.448 | 0.404 | 0.358 | 0.324 | 0.369 | 0.332 | 0.328 | 0.389 | 1.1 | 1.1 | 0.917 | 1.02
HCC-827 | 0.954 | 1.01 | 0.928 | 0.941 | 0.952 | 0.858 | 0.965 | 0.976 | 0.987 | 0.653 | 0.556 | – | 0.616 | 0.697 | 1.01 | 1.04 | 1.02 | 0.912
HOP-62 | 0.906 | 1.02 | 1.32 | 0.92 | 0.75 | 0.706 | 1.19 | 1.26 | 0.907 | – | 0.322 | 0.54 | 0.619 | 0.449 | 0.737 | 0.752 | 0.763 | 0.696
IA-LM | 0.392 | 0.697 | 0.745 | 0.373 | 0.695 | 0.761 | 0.808 | 0.789 | 0.844 | 0.908 | 0.796 | 0.851 | 0.75 | 0.74 | 0.806 | 0.78 | 0.874 | 0.737
LC-2-ad | 0.806 | 0.957 | 0.814 | 0.753 | 0.775 | 0.837 | 0.952 | 0.9 | 0.592 | 0.697 | 0.635 | 0.757 | 0.747 | 0.86 | 0.975 | 1.03 | 1.02 | 0.947
LCLC-97TM1 | 0.2 | 0.183 | 0.161 | 0.212 | – | 0.22 | 0.267 | 0.261 | 0.252 | 0.333 | 0.332 | 0.406 | 0.467 | 0.417 | 0.313 | 0.74 | 0.621 | 0.185
LCLC-103H | 0.999 | 0.974 | 1.16 | 1.16 | 1.01 | 0.533 | 0.94 | 1.04 | 0.943 | 0.691 | 0.718 | 0.789 | 0.769 | 0.819 | 1.01 | 1.06 | 1.17 | 1.1
LK-2 | 0.425 | 0.764 | 0.491 | 0.796 | 1.14 | 1.08 | 1.04 | 1.03 | 1.06 | 0.536 | 0.772 | 0.685 | 0.583 | 0.644 | – | – | – | –
LOU-NH91 | 1.05 | 0.879 | 0.97 | 0.978 | 0.683 | 0.724 | 0.761 | 0.5 | 0.771 | 0.87 | 0.885 | 0.931 | 0.838 | 1.01 | 0.704 | 0.521 | 0.487 | 0.555
LU99A | 0.581 | 0.503 | 0.554 | 0.545 | 0.448 | 0.512 | 0.627 | 0.517 | 0.431 | 0.253 | 0.251 | 0.293 | 0.276 | 0.238 | 1.17 | 1.11 | 1.16 | 0.965
LXF-289 | 0.97 | 0.86 | 0.999 | 0.828 | 0.992 | 0.999 | 1.1 | 1.01 | 0.947 | 0.901 | 0.987 | 1.16 | 1 | 0.992 | 0.944 | 0.93 | 0.989 | 1.02
NCI-H358 | 0.708 | 0.689 | 0.778 | 0.253 | 0.693 | 0.89 | 0.815 | – | 0.753 | 0.548 | 0.6 | 0.585 | – | 0.67 | – | – | – | –
NCI-H522 | – | – | – | – | – | – | – | – | – | 0.61 | 0.764 | 0.716 | 0.6 | 0.783 | – | – | – | –
NCI-H1395 | 1.11 | 0.889 | 1.09 | 1.14 | 1.05 | 1.01 | 1.21 | 1.06 | 0.995 | 0.476 | 0.455 | 0.489 | 0.444 | 0.512 | – | – | – | –
NCI-H1563 | 1.26 | 1.38 | 1.24 | 1.28 | 0.893 | 0.871 | 0.945 | – | 0.826 | – | – | – | – | – | 0.974 | 0.926 | 0.907 | 0.989
NCI-H1650 | – | – | – | – | – | – | – | – | – | 0.793 | 0.816 | 0.607 | – | 0.737 | 0.216 | 0.23 | 0.221 | 0.19
NCI-H1793 | – | 0.639 | 0.886 | 0.483 | 0.588 | 0.875 | 0.788 | 0.731 | 0.798 | 0.765 | 0.684 | 0.855 | 0.808 | 0.835 | – | – | – | –
NCI-H1944 | 1.14 | 1.15 | 1.19 | 1.32 | 0.691 | 0.826 | 0.898 | 0.89 | 0.805 | 0.442 | 0.374 | 0.396 | 0.425 | 0.385 | – | – | – | –
NCI-H2170 | – | – | – | – | 0.769 | 0.683 | 0.956 | 0.787 | 0.809 | 0.567 | 0.681 | 0.656 | 0.584 | 0.54 | – | – | – | –
NCI-H2342 | – | – | – | – | – | – | – | – | – | 0.415 | 0.474 | 0.51 | 0.388 | 0.395 | – | – | – | –
SK-MES-1 | 1.12 | 1.07 | 1.12 | 0.964 | 0.838 | 0.424 | 1.06 | 0.865 | 0.97 | 0.685 | 0.678 | 0.805 | – | 0.732 | – | – | – | –
SW 900 | – | – | – | – | – | – | – | – | – | 0.803 | 0.871 | 0.968 | 0.921 | 0.885 | – | – | – | –
